Experimental data from PubChem BioAssay AID330 (DTP/NCI, 2004).
Several values for one entry are separate records, joined by “and”; a condition that tells them apart may be missing. Equal entries are not always repeated. Inconclusive results and toxic doses are left out.

System: P388 leukemia ip, CD2F1 mice, survival T/C
Experiment: NCI In Vivo Anticancer Drug Screen. Data for tumor model P388 Leukemia (intraperitoneal) in CD2F1 (CDF1) mice
Details: endpoint: median survival time, higher = longer survival
Method in brief: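 Mice carrying the transplanted tumor received test compound or vehicle. Survival was recorded in each group, and the value is the treated-group measurement divided by that of the vehicle-treated control group.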

[1] = dose: 12.5 mg/kg/injection, schedule: Q01DX005 (ip), vehicle: Klucel (hydroxypropylcellulose) (HPC)
[2] = dose: 25.0 mg/kg/injection, schedule: Q01DX005 (ip), vehicle: Klucel (hydroxypropylcellulose) (HPC)
[3] = dose: 50.0 mg/kg/injection, schedule: Q01DX005 (ip), vehicle: Klucel (hydroxypropylcellulose) (HPC)
[4] = dose: 100.0 mg/kg/injection, schedule: Q01DX005 (ip), vehicle: Klucel (hydroxypropylcellulose) (HPC)
[5] = dose: 50.0 mg/kg/injection, schedule: Q01DX009 (ip), vehicle: saline with Tween-80
[6] = dose: 50.0 mg/kg/injection, schedule: Q01DX005 (ip), vehicle: saline with Tween-80
[7] = dose: 100.0 mg/kg/injection, schedule: Q01DX005 (ip), vehicle: saline with Tween-80
[8] = dose: 200.0 mg/kg/injection, schedule: Q01DX005 (ip), vehicle: saline with Tween-80
[9] = dose: 60.0 mg/kg/injection, schedule: Q01DX005 (ip), vehicle: saline with Tween-80
[10] = dose: 120.0 mg/kg/injection, schedule: Q01DX005 (ip), vehicle: saline with Tween-80
[11] = dose: 240.0 mg/kg/injection, schedule: Q01DX005 (ip), vehicle: saline with Tween-80
[12] = dose: 6.25 mg/kg/injection, schedule: Q01DX009 (ip), vehicle: saline with Tween-80
[13] = dose: 12.5 mg/kg/injection, schedule: Q01DX009 (ip), vehicle: saline with Tween-80
[14] = dose: 60.0 mg/kg/injection, schedule: Q01DX005 (ip), vehicle: Klucel (hydroxypropylcellulose) (HPC)
[15] = dose: 120.0 mg/kg/injection, schedule: Q01DX005 (ip), vehicle: Klucel (hydroxypropylcellulose) (HPC)
[16] = dose: 240.0 mg/kg/injection, schedule: Q01DX005 (ip), vehicle: Klucel (hydroxypropylcellulose) (HPC)
[17] = dose: 200.0 mg/kg/injection, schedule: Q01DX005 (ip), vehicle: Klucel (hydroxypropylcellulose) (HPC)

What does the source list for `COc1ccc(N=C=S)cc1N=C=S`?
T/C (dose: 6.25 mg/kg/injection, schedule: Q04DX003 (ip), vehicle: saline with Tween-80): 95 % of control; T/C (dose: 12.5 mg/kg/injection, schedule: Q04DX003 (ip), vehicle: saline with Tween-80): 104 % of control; T/C (dose: 25.0 mg/kg/injection, schedule: Q04DX003 (ip), vehicle: saline with Tween-80): 104 % of control

What does the source list for `Nc1c(/C=C/c2cc3ccc(C4=NCCN4)cc3[nH]2)[nH]c2cc(C3=NCCN3)ccc12`?
T/C [1]: 111 % of control; T/C [2]: 120 % of control; T/C [3]: 189 % of control; T/C [4]: 223 % of control

What does the source list for `C=C1CC2(CCCc3ccccc32)OC1=O` (stereo unspecified)?
T/C (dose: 100.0 mg/kg/injection, schedule: Q01DX001 (ip), vehicle: saline): 101 % of control; T/C (dose: 200.0 mg/kg/injection, schedule: Q01DX001 (ip), vehicle: saline): 102 % of control; T/C (dose: 400.0 mg/kg/injection, schedule: Q01DX001 (ip), vehicle: saline): 101 % of control

For `N#Cc1ccc(Cl)cc1`, which T/C [5] is on record?
Its T/C is 101 % of control.

And the T/C (dose: 100.0 mg/kg/injection, schedule: Q01DX009 (ip), vehicle: saline with Tween-80)?
Its T/C is 89 % of control.

And the T/C (dose: 200.0 mg/kg/injection, schedule: Q01DX009 (ip), vehicle: saline with Tween-80)?
The T/C was 93 % of control.

Which results are given for `CCCCCCCCC(O)C#CC(O)CCCCCCCC` (stereo unspecified)?
T/C (dose: 12.5 mg/kg/injection, schedule: Q01DX005 (ip), vehicle: saline with Tween-80): 92 % of control; T/C (dose: 25.0 mg/kg/injection, schedule: Q01DX005 (ip), vehicle: saline with Tween-80): 90 % of control; T/C [6]: 101 % of control and 91 % of control; T/C [7]: 100 % of control

What does the source list for `CCN(CC)CCOC12CC3CC(CC(C3)C1)C2`?
T/C [1]: 104 % of control; T/C [2]: 101 % of control; T/C [3]: 100 % of control and 104 % of control

For `NC(CCC(=O)O)C(=O)NC(Cc1c[nH]c2ccccc12)C(=O)O` (stereo unspecified), which T/C [6] is on record?
Its T/C is 103 % of control.

And the T/C [7]?
Its T/C is 96 % of control.

And the T/C [8]?
The T/C was 105 % of control.

`Cc1ccc(S(=O)(=O)N/N=C2\C(=N\NS(=O)(=O)c3ccc(C)cc3)C3c4ccccc4C2c2ccccc23)cc1` was tested. Which T/C [9] did it give?
Its T/C is 105 % of control.

And the T/C [10]?
Its T/C is 96 % of control.

What about the T/C [11] of the same compound?
The T/C was 95 % of control.

`Cc1cc(CCO)n[nH]1` was tested. Which T/C (dose: 50.0 mg/kg/injection, schedule: Q01DX009 (ip), vehicle: saline) did it give?
Its T/C is 97 % of control.

And the T/C (dose: 100.0 mg/kg/injection, schedule: Q01DX009 (ip), vehicle: saline)?
Its T/C is 100 % of control.

And the T/C (dose: 200.0 mg/kg/injection, schedule: Q01DX009 (ip), vehicle: saline)?
Its T/C is 100 % of control.

How did the T/C (dose: 3.13 mg/kg/injection, schedule: Q01DX009 (ip), vehicle: saline with Tween-80) turn out when `CC1(C)CCC(C)(C)NC(=S)N1` was run?
Its T/C is 96 % of control.

What about the T/C [12] of the same compound?
The T/C was 105 % of control.

And the T/C [13]?
The T/C was 96 % of control.

For `CCOC(=O)Nc1cc2c(c(N)n1)N=C(c1ccccc1)C(C)N2` (stereo unspecified), which T/C (dose: 0.5 mg/kg/injection, schedule: Q01DX005 (ip), vehicle: saline) is on record?
The T/C was 123 % of control.

What about the T/C (dose: 0.75 mg/kg/injection, schedule: Q01DX005 (ip), vehicle: saline) of the same compound?
The T/C was 121 % of control.

And the T/C (dose: 1.0 mg/kg/injection, schedule: Q01DX005 (ip), vehicle: saline)?
The T/C was 171 % of control.

Which results are given for `O=C1COc2ccc(F)cc2N1`?
T/C [14]: 102 % of control and 103 % of control; T/C [15]: 101 % of control and 96 % of control; T/C [16]: 101 % of control and 102 % of control

For `OCC1=C(CO)CC=CC1`, which T/C [9] is on record?
The T/C was 96 % of control.

What about the T/C [10] of the same compound?
The T/C was 96 % of control.

What about the T/C [11] of the same compound?
The T/C was 95 % of control.

With `CCN(CC)CCNc1cccc2oc3ccc(O)cc3c(=O)c12` as the compound, how does the T/C [6] read?
The T/C was 108 % of control.

And the T/C [7]?
The T/C was 105 % of control.

What about the T/C [8] of the same compound?
The T/C was 108 % of control.

For `COC(=O)C1CCC=CC1Sc1ccccc1` (stereo unspecified), which T/C (dose: 50.0 mg/kg/injection, schedule: Q01DX009 (ip), vehicle: Klucel (hydroxypropylcellulose) (HPC)) is on record?
Its T/C is 105 % of control.

And the T/C (dose: 100.0 mg/kg/injection, schedule: Q01DX009 (ip), vehicle: Klucel (hydroxypropylcellulose) (HPC))?
The T/C was 106 % of control.

And the T/C (dose: 200.0 mg/kg/injection, schedule: Q01DX009 (ip), vehicle: Klucel (hydroxypropylcellulose) (HPC))?
The T/C was 112 % of control.

With `OC1(CN2CCCCC2)CCCOCCCOCCCOCCCOCCCOCCC1` as the compound, how does the T/C [6] read?
Its T/C is 94 % of control.

And the T/C [7]?
The T/C was 99 % of control.

And the T/C [8]?
The T/C was 100 % of control.

What does the source list for `CCOC(=O)C1C(=O)N2C(=O)C(NC(C)=O)=C(O)C2C1c1ccc(OC)cc1` (stereo unspecified)?
T/C (dose: 100.0 mg/kg/injection, schedule: Q04DX002 (ip), vehicle: saline with Tween-80): 100 % of control; T/C (dose: 200.0 mg/kg/injection, schedule: Q04DX002 (ip), vehicle: saline with Tween-80): 100 % of control; T/C (dose: 400.0 mg/kg/injection, schedule: Q04DX002 (ip), vehicle: saline with Tween-80): 98 % of control

For `O=c1c2ccccc2cc2n1CCN2`, which T/C [3] is on record?
The T/C was 96 % of control.

What about the T/C [4] of the same compound?
Its T/C is 112 % of control.

What about the T/C [17] of the same compound?
The T/C was 107 % of control.

How did the T/C [12] turn out when `CSc1ccc(NC(=O)ON2C(=O)c3ccccc3C2=O)cc1` was run?
The T/C was 119 % of control.

And the T/C [13]?
The T/C was 110 % of control.

And the T/C (dose: 25.0 mg/kg/injection, schedule: Q01DX009 (ip), vehicle: saline with Tween-80)?
Its T/C is 112 % of control.

What about the T/C [5] of the same compound?
Its T/C is 119 % of control.

Which T/C [14] does the source give for `[C-]#[N+]N=P(c1ccccc1)(c1ccccc1)c1ccccc1` here?
Its T/C is 107 % of control.

And the T/C [15]?
The T/C was 114 % of control.

What about the T/C [16] of the same compound?
Its T/C is 122 % of control.

`O=c1[nH]c(=O)c2nc3cc(Cl)ccc3nc2[nH]1` was tested. Which T/C [3] did it give?
Its T/C is 116 % of control.

What about the T/C [4] of the same compound?
Its T/C is 104 % of control.

And the T/C [17]?
Its T/C is 99 % of control.
